Measured values: patent US20160257735A1, “REGULATION OF NPVF GENE AND ITS PRODUCTS: A METHOD FOR MODULATING ENERGY IMBALANCE” (Institute of Animal Reproduction and Food Research PAS, priority 2015, published 2016)
Ends that are not written are not given here.

Tests used:
[1] = tested on: Npvf mRNA in hypothalamus; test: CL 316,243 or saline administration for 7 days at 29° C., Npvf mRNA in hypothalamus by qRT-PCR; assay type: in vivo, mice (C57BL/6J); settings: one week administration, 1 mg/kg of body weight, subcutaneous, mice at 29° C.
Experimental: Total RNA was isolated from adipose tissue, liver and hypothalamus using TRI Reagent and BCP phase separation reagent (Molecular Research Center Inc. Cincinnati, Ohio, United States). RNA was further purified by using the RNAeasy minikit (QIAGEN, Valencia, Calif., United States) and stored at −80° C. in RNase-free H2O with addition of SUPERase-In (Ambion, Austin, Tex., United States) for RNase protection. Quality and quantity of RNA was determined using UV spectrophotometry (Nanodrop) and agarose gel visualization of intact RNA. Quantitative RT-PCR using TaqMan probes and primers (Applied Biosystems, Foster City, Calif., United States) was performed with standard curves generated using pooled RNA isolated from corresponding tissues collected from eight 8 week old C57BL/6J.+/+ mice. Probe and primer sequences used to perform the analyses are available upon request. All the gene expression data were normalized to the level of cyclophilin b.
To establish the influence of different ambient temperature on Npvf expression mice were kept in climate-controlled rodent incubators. To evaluate the effects of the β adrenergic receptor agonist on Ucp1 and Npvf, thermoneutrally acclimated mice were injected subcutaneously with 1 mg kg^−1 […] or saline for 7 days.
All mice used in the following studies were adult wild-type C57BL/6J+/+ mice. […]

[2] = biological target: T1, rat orphan 7TM GPCR (OT7T022, GPR147, NPFFR1) (Rattus norvegicus, UniProt Q9EP86); settings: synthetic RFRPs; cited from earlier work
T1 construct: expressed in transfected cells; host or cells: CHO cells
T1 sequence (Q9EP86 whole entry): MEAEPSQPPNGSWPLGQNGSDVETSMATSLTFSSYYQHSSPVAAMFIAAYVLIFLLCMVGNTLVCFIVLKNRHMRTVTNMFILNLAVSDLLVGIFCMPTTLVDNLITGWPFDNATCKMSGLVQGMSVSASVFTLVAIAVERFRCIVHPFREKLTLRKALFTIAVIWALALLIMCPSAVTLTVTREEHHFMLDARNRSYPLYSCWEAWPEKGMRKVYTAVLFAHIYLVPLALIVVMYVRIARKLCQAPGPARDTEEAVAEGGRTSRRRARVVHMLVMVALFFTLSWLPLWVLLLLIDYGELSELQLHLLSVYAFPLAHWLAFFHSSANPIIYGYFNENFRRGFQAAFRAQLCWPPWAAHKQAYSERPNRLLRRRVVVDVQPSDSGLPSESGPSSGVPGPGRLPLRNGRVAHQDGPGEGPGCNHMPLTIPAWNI

[3] = tested on: NPFF receptors (NPFF1 and NPFF2 subtypes); settings: cited from earlier work
NPFFR1 = NPFFR1 (Homo sapiens, UniProt Q9GZQ6); settings: cited from earlier work
NPFFR1, sequence (Q9GZQ6 whole entry, species assumed): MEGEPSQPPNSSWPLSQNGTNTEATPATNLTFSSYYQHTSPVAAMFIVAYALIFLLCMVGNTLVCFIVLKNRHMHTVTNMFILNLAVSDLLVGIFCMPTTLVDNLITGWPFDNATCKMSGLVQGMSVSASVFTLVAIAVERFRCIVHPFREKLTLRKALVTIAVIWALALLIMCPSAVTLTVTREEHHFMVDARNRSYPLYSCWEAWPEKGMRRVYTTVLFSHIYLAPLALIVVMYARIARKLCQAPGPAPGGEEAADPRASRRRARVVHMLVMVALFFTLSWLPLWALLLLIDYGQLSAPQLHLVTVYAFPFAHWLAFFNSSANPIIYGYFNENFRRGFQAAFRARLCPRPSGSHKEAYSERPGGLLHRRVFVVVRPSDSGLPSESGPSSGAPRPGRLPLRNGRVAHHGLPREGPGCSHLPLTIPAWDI

Which “suppression of Npvf mRNA in hypothalamus compared to saline-treated control mice” value [1] does the source give for `C[C@H](Cc1ccc2c(c1)OC(C(=O)[O-])(C(=O)[O-])O2)NC[C@H](O)c1cccc(Cl)c1.[Na+].[Na+]` [CL 316,243] here?
The value was “did not result in the suppression of Npvf mRNA in hypothalamus”.

For “RFRP-3: RFamide-related peptide derived from Npvf precursor; human sequence VPNLPQRF-NH(2) (SEQ ID NO: 2)”, which “response of GPR147-transfected CHO cell lines” value [2] is on record?
Its value is “responded specifically”.

For “RFRP-1: RFamide-related peptide derived from Npvf precursor; human sequence MPHSFANLPLRF-NH(2) (SEQ ID NO: 1) (MPHSFANLPLRF-NH2; listed as Homo sapiens)”, which “response of GPR147-transfected CHO cell lines” value [2] is on record?
The value was “responded specifically”.

What does the source list for `NC(=O)[C@H](Cc1ccccc1)NC(=O)[C@H](CCCN=C(N)N)NC(=O)C12CC3CC(CC(C3)C1)C2` [RF9, adamantylcarbonyl-arginyl-phenylalaninamide]?
discrimination between NPFF1 and NPFF2 subtypes [3]: does not distinguish between the NPFF1 and NPFF2 subtypes; selectivity for NPFF receptors [3]: selective for NPFF receptors

Which “binding to NPFFR1” value (NPFFR1) does the source give for `NC(N)=NCCC[C@@H](NC(=O)C(c1ccccc1)c1ccccc1)C(=O)NCc1ccc(O)cc1` [BIBP3226] here?
The value was “has been shown to bind to NPFFR1”.
